Here are results for one compound from patent US12552800B2, “Compounds for diagnosis” (AC IMMUNE SA, priority 2020, dated 2026).

Experiment [1] concerns the target T1, Abeta pathological aggregates (Homo sapiens, UniProt P05067).
T1 construct: Abeta pathological aggregates present in the human AD brain homogenates; from tissue; host or cells: human AD donor brain, Triton/sucrose-insoluble 100,000 x g pellet
The experiment can be described thus: Radiobinding competition assay against [^3H]-Abeta-Ref on AD brain homogenates (example compound 4). The experiment is classed as binding. Conditions: displacement of [^3H]-Abeta-Ref at 10 nM, AD brain-derived homogenates. The protocol:
The procedure was adapted from the protocol described in Bagchi et al., 2013. Frozen tissue blocks from AD donors were thawed on ice and homogenized in high salt buffer (50 mM Tris-HCl pH 7.5, 0.75M NaCl, 5 mM EDTA) supplemented with protease inhibitors (Complete; Roche 11697498001) at 4° C. using a glass Dounce homogenizer. The homogenate was centrifuged at 100,000×g (38,000 RPM) in an ultracentrifuge (Beckman, XL100K) for one hour at 4° C. using a pre-cooled 70.1 rotor (Beckman, 342184). Pellets were resuspended in high salt buffer supplemented with 1% Triton X-100 and homogenized at 4° C. using a glass Dounce homogenizer. The homogenates were centrifuged again at 100,000×g (38,000 RPM, 70.1 rotor) for one hour at 4° C. Pellets were resuspended in high salt buffer supplemented with 1% Triton X-100 and 1 M sucrose and homogenized at 4° C. using a glass Dounce homogenizer. The homogenates were centrifuged at 100,000×g (38,000 RPM, 70.1 rotor) for one hour at 4° C. […]
A fixed concentration of AD insoluble fraction was incubated with a tritiated reference Abeta ligand ([^3H]-Abeta-Ref) at 10 nM and increasing concentrations of non-radiolabelled example compound 1 in the range of 400 pM to 2 μM for two hours at RT. […] The filters were analyzed on a Microbeta2 scintillation counter (PerkinElmer). […]

The target in experiment [2] is T2, PD brain-derived a-syn aggregates (Homo sapiens, UniProt P37840).
T2 construct: from tissue; host or cells: human PD donor brain, sarkosyl-insoluble 100,000 x g pellet
The experiment can be described thus: Micro-radiobinding competition assay against Example-1 [^3H-1] (Table 8). The experiment is classed as binding. In outline: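 Human PD brain-derived α-syn aggregates on microarray slides were co-incubated with 6 nM or 20 nM tritiated radioligand and unlabelled compound at 1 μM and 100 nM, some over 0.05 nM–2 μM. Bound signal read by real-time autoradiography; values are % competition, at least two technical replicates, mean of independent experiments.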

For orientation: pKi means −log10 of the Ki, conventionally taken in molar units.

pKi: −log10 of the molar value.

T1 sequence (P05067 672-713 limits assumed): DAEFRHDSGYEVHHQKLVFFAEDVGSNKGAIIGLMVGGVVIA

Take `Cn1cc(N2Cc3nn(-c4ccc(N5CC[C@@H](F)C5)nc4)cc3C2=O)cn1` [Example 4]: the pKi in experiment [1] was 6.53; in experiment [2] (mean of Ki values in independent experiments using PD brain-derived homogenates from three different donors) it was 7.30. In experiment [2] (100 nM non-radiolabelled example compound vs Example-1 [^3H-1] ligand, human PD brain-derived a-syn aggregates), the “Competition at 100 nM (%)” value was 58%. The “Competition at 1 μM (%)” value in experiment [2] (1 μM non-radiolabelled example compound vs Example-1 [^3H-1] ligand, human PD brain-derived a-syn aggregates) was 92%.
